The numbers were not newly measured in patent publication US9353185B2, “Antibodies” (Affitech Research AS, priority 2010, dated 2016), which cites them from elsewhere.

The test system of series [1] is acute myeloid leukaemia (AML). The settings on record: Mozobil pre-conditioning prior to MEC chemotherapy; patients available for first follow-up evaluation; cited from earlier work.
Another series has as its system X4 HIV strains. The settings on record: in vitro and in vivo in clinical trials in humans; cited from earlier work.
The subject of series [2] is Th2-mediated inflammatory response. Conditions: Hu et al, 2006; cited from earlier work.
Series [3] has as its system CXCR4 expressing cell lines. Conditions: range of CXCR4 expressing cell lines; cited from earlier work.
The subject of series [4] is AML and lymphoma tumor xenograft models. The settings on record: multiple AML and lymphoma tumor xenograft models; cited from earlier work.

Turning to `c1cc(CN2CCCNCCNCCCNCC2)ccc1CN1CCCNCCNCCCNCC1` [AMD3100, plerixafor], the “complete remission (CR or CRi)” value in series [1] is reported as 50% of patients. Further, the “inhibition of entry of X4 HIV strains” value in the series with X4 HIV strains is recorded as “very high efficacy”. In the case of `c1ccc(CNCc2ccc(CN3CCCNCCNCCCNCC3)cc2)nc1` [AMD3465], in series [2], the “effect on Th2-mediated inflammatory response” value is “abrogate the Th2-mediated inflammatory response”. With “MDX-1338: anti-human CXCR4-specific, fully human monoclonal antibody from Medarex; an IgG4”, the induction of apoptosis result in series [3] is reported as “induces apoptosis”. Also, the anti-tumor activity entry in series [4] is listed as “has anti-tumor activity”.
